{
  "source": "patent US20100247525A1",
  "about": "(priority 2006, published 2010)",
  "key": {"LeTx pre-sensitized mice": {"test_system": "LeTx pre-sensitized mice", "details": "mouse, in vivo"}, "NFkappaB translocation": {"test_system": "NFkappaB translocation", "details": "mouse, in vivo"}, "human TNF-α": {"biological_target": "T1, human TNF-α (Homo sapiens, UniProt P01375)", "T1 construct": "purchased Chemicon, Inc", "T1 sequence (P01375 77-233 limits assumed)": "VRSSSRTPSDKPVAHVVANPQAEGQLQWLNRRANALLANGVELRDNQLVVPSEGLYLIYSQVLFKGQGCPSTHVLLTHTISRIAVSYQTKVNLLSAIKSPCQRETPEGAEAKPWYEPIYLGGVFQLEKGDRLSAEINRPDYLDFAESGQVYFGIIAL", "details": "in vivo"}},
  "note": "Several values for one entry are separate records, joined by “and”; a condition that tells them apart may be missing. Identical values can stand only once.",
  "data": [
    {"compound": "PAM3-CSK-4", "values": [
      {"measurement": "initiation of RDP", "setting": "LeTx pre-sensitized mice", "value": "initiates RDP"},
      {"measurement": "initiation of RDP (death initiator)", "setting": "LeTx pre-sensitized mice", "value": "death initiators"}
    ]},
    {"compound": "Cc1ccc(=O)n(-c2ccccc2)c1", "note": "[Pirfenidone]", "values": [
      {"measurement": "survival enhancement", "setting": "NFkappaB translocation", "value": "40% and 20%"}
    ]},
    {"compound": "Etanercept", "values": [
      {"measurement": "prevention of lethality", "setting": "human TNF-α", "value": "prevents lethality"},
      {"measurement": "protection when the death initiator is human TNF-α", "setting": "human TNF-α", "value": "protects"}
    ]}
  ]
}
